Measurements taken from patent publication US20260151398A1, “COMPOUNDS FOR REDUCING CHOLESTEROL AND TREATING LIVER AND KIDNEY DISEASE” (McMaster University, priority 2021, published 2026).
“Also recorded” adds a separate entry of the source.

Tests used:
PCSK9 = PCSK9 expression in hepatocytes (immunoblot, real-time PCR); assay type: cell-based, human, mouse
Description: HuH7 and HepG2 cells were routinely grown in complete Dulbecco's Modified Eagle's Medium (Gibco, Thermofisher Scientific) supplemented with 10% fetal bovine serum (Sigma-Aldrich) and 100 U/ml of penicillin and streptomycin (Sigma-Aldrich). […] All cell treatments were carried out for 24 h unless otherwise stated. Cells were transfected with a cocktail consisting of plasmid DNA (1 μg), X-tremeGENE HP (3 μl; Thermofisher Scientific) and opti-MEM (100 μl; Thermofischer Scientific) per 1 ml complete medium containing plated cells. Human PCSK9 was overexpressed using the bicistronic pIRES-EGFP plasmid; calnexin using the mPA-GFP-N1 plasmid. To block the expression of GRP78 and CD36, siGENOME smartpool siRNA was purchased from GE Dharmacon (M-008198-02 and L-010206-00-0005 respectively) and transfected using lipofectamine RNAiMAX as per manufacturer's protocol.
(§1) Cells were washed in phosphate-buffered saline (PBS), lysed in 4× SDS-PAGE lysis buffer and separated on 7-10% polyacrylamide gels in denaturing conditions. Gels were transferred to nitrocellulose membranes using the BioRad mini trans-blot system, blocked in 5% skim milk in tris-buffered saline (TBS) for 1 h and incubated in primary antibody overnight for 16 h at 4° C. Membranes were then exposed to horse radish peroxidase conjugated secondary antibodies and visualized using EZ-ECL chemiluminescent reagent (Froggabio). Band intensities were quantified using ImageJ software ([…]) against membranes reprobed for housekeeping proteins.
RNA purification/isolation was performed using RNeasy mini kits (Qiagen) and normalized to 2 μg RNA using a NanoDrop® spectrophotometer. Samples were then reverse transcribed into cDNA using Superscript Vilo cDNA Synthesis kit (Thermofisher Scientific). Real-time PCR was executed with Fast SYBR Green (Thermo Fisher Scientific) using the ΔΔct method on the ViiA7 real-time PCR platform (Thermofisher Scientific).
Cultured immortalized hepatocytes known to express and secrete PCSK9 (Lebeau, P., et al., 2017), including HuH7 and HepG2 cells, as well as primary mouse- and human-hepatocytes (PMH and PHH, respectively), were treated with CF for 24 h and assessed for PCSK9 expression via immunoblots and real-time PCR (FIG. 1 A to D). […] Given that sterol deprivation represents another well-established promoter of SREBP2 activation (Lebeau, P., et al., 2017), cells were also treated with CF in the presence and absence of U18666A (U18) that depletes intracellular sterols. […] Next, HepG2 cells were treated with an increasing dose of CF.

calnexin = assay: Calnexin protein expression in HuH7 cells (immunoblot); assay type: cell-based, human
Description: as §1
(§2) Among the many intracellular effects of CF on the cell, its ability to increase intracellular Ca^2+ levels is well-studied (Echeverri, D., et al., 2010). […] ER Ca^2+ levels were then examined in cells transfected with D1ER; a genetically-encoded ER-resident fluorescence resonance energy transfer (FRET)-based […] chameleon Ca^2+ sensor, which increases in fluorescence intensity upon Ca^2+ binding (Palmer, A. E., et al., 2004). The low-affinity Ca^2+ indicator, Mag-Fluo-4, was also utilized for the direct assessment of ER Ca^2+ and increases in fluorescence intensity upon Ca^2+ binding (Diercks, B. P., et al., 2017; Lebeau, P., et al., 2021). […] ER Ca^2+ content was also assessed indirectly with the high affinity Ca^2+ dye, fura-2-AM (FIG. 6 B). […]

ER Ca^2+ levels = assay: ER Ca2+ in HuH7 cells (D1ER, Mag-Fluo-4, TG-induced efflux); assay type: cell-based, human; conditions: TG 100 nM, CDN 100 μM, CF 200 μM, 24 h
Description: Intracellular Ca^2+ in Huh7 and HepG2 cells was measured using a high-affinity Ca^2+ indicator, Fura-2-AM (Thermofisher Scientific). ER Ca^2+ levels were assessed using the low-affinity Ca^2+ indicator, Mag-Fluo-4, and via transfection of cells with D1ER. The D1ER plasmid encodes an ER-resident calcium binding protein linked to a fluorescent protein and increases in fluorescence intensity upon Ca^2+ binding (7). For assessment using indicators, cells were plated in black clear-bottom 96-well plates to a confluence of 70-75% and treated with Ca^2+ modulating agents for 24 h (n=6). Cells were then washed and incubated with Fura-2-AM (2 μM) or Mag-Fluo-4 (2 μM) for 45 minutes at 37° C. in HBSS containing 20 mM HEPES and 2% pluronic acid v/v (Thermofisher Scientific). Fluorescence intensity of intracellular Fura-2-AM was measured at two distinct wavelengths (ex 340/em 515 and ex 380/em 515), following three consecutive washes, to assess bound and unbound states using a SpectraMax® GeminiEM fluorescent spectrophotometer (Molecular Devices, Sunnyvale, California, USA). Fluorescence intensity of Mag-Fluo-4 was quantified at a single wavelength (ex 495/em 515). […] Twenty-four h later, cells were treated with Ca^2+ modulating agents for an additional 24 h and quantified (ex 495/em 515) using a SpectraMax® GeminiEM fluorescent spectrophotometer.
as §2

Row | Compound | TG-induced PCSK9 expression (PCSK9; CF 200 μM with thapsigargin 100 nM, 24 h) | PCSK9 mRNA and secreted protein in presence of ActD (PCSK9; HepG2 pre-treated with actinomycin D) | PCSK9 and SREBP2 mRNA and secreted PCSK9 in presence of siGRP78 (PCSK9; HepG2 transfected with siGRP78) | PCSK9 protein and mRNA transcript levels (PCSK9; HuH7, HepG2, PMH, PHH, 24 h, listed as CF) | U18-induced PCSK9 expression (PCSK9; HuH7, CF 200 μM with U18 10 μM, 24 h) | calnexin protein expression (calnexin) | ER Ca^2+ levels (ER Ca^2+ levels) | SREBP2 and PCSK9 mRNA transcript level (PCSK9; HuH7, ryanodine 10 μM, CDN 100 μM, 2 APB 50 μM, presence or absence of TG, 24 h) | PCSK9 and SREBP2 expression on ER Ca2+ depletion (PCSK9; HuH7, TG 100 nM, CPA 10 μM)
1 | Cn1c(=O)c2c(ncn2C)n(C)c1=O [caffeine, 1,3,7-Trimethylxanthine] | attenuated PCSK9 expression | failure of CF to block PCSK9 mRNA | failed to attenuate PCSK9 and SREBP2 mRNA expression or secreted PCSK9 levels | reduced protein and mRNA transcript levels of PCSK9; also recorded: blocks PCSK9 expression | attenuated U18-induced PCSK9 expression | induced | increased ER Ca^2+ levels | – | –
2 | Cc1ccc2cccc(NC(=O)c3ccc(OC(C)C)cc3)c2n1 [CDN] | – | – | – | – | – | – | increased ER Ca^2+ levels | blocked SREBP2 and PCSK9 at the mRNA transcript level | –
3 | C/C=C(/C)C(=O)O[C@H]1C(C)=C2[C@H]([C@@H]1OC(=O)CCCCCCC)[C@@](C)(OC(C)=O)C[C@H](OC(=O)CCC)[C@@]1(O)[C@H]2OC(=O)[C@@]1(C)O [TG, thapsigargin] | – | – | – | – | – | blocked | reduced ER Ca^2+ levels | – | increased PCSK9 and SREBP2 expression
